Results as given in US9850283B2, “Macrocyclic inhibitors of the PD-1/PD-L1 and CD80(B7-1)/PD-L1 protein/protein interactions” (BRISTOL-MYERS SQUIBB COMPANY, priority 2013, dated 2017).
Read-outs that look alike come from different tables or passages of the source. Positions of bridges follow the written chain, without caps; N, C: chain ends. Non-standard residues stand in square brackets, D forms with d. Residues, ends and D or L forms follow the SMILES beside them. ξ: configuration not given here. Phe(4-CH2NH2) = NCc1ccc(C[C@H](N)C(=O)O)cc1; Phe(4-F) = N[C@@H](Cc1ccc(F)cc1)C(=O)O; Bta = N[C@@H](Cc1csc2ccccc12)C(=O)O; Hyp = O=C(O)[C@@H]1C[C@@H](O)CN1; NMeF = CN[C@@H](Cc1ccccc1)C(=O)O; NMeNle = CCCC[C@H](NC)C(=O)O; NMeA = CN[C@@H](C)C(=O)O; dAze = O=C(O)[C@H]1CCN1; ξC = NC(CS)C(=O)O; Sar = CNCC(=O)O

Experiments:
[1] = target: T1, Human PD-L1/PD-1 (Homo sapiens, UniProt Q9NZQ7); assay: HTRF PD-1-Ig/PD-L1-His binding assay (human PD-L1); conditions: cluster symbol; read-out: HTRF IC50 cluster
T1 construct: made in house; host or cells: HEK293T
Summary of the method: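 Interaction of Fc-tagged soluble PD-1 with His-tagged soluble PD-L1 is monitored by time-resolved FRET. Donor is europium cryptate anti-Ig (1 nM final) and acceptor is APC anti-His (20 nM final). Assay buffer is dPBS with 0.1% BSA and 0.05% Tween-20.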

[2] = target: T2, LK35.2-hPD-L1 cells / PE-labeled PD-1-Ig (Homo sapiens, UniProt Q9NZQ7); assay: LK35.2-hPD-L1 cell binding high-content screening assay; type: cell-based; conditions: cluster symbol, read-out: CBA IC50 cluster
T2 construct: expressed in transfected cells; host or cells: LK35.2 mouse B cell line
Summary of the method: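 Binding of PE-conjugated human PD-1-Ig (1 nM final) to human PD-L1 stably expressed on a mouse B-cell line (LK35.2) was measured by high-content imaging after washes. Compound and labeled PD-1-Ig were co-incubated 1 h at 37 °C with cells in RPMI/10% FCS.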

[3] = cell binding assay, cell line not given
[4] = cell line of CBA not given (LK35.2-hPD-L1 or 293T-hPD-L1)

T1 sequence (Q9NZQ7 with tags, fused parts or gaps): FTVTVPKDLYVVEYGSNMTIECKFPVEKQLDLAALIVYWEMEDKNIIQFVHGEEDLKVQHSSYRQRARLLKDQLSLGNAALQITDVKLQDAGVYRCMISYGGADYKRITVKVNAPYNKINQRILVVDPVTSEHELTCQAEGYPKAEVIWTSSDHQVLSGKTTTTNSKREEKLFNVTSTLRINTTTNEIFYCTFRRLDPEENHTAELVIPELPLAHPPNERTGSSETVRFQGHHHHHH
T2 sequence (Q9NZQ7 19-290): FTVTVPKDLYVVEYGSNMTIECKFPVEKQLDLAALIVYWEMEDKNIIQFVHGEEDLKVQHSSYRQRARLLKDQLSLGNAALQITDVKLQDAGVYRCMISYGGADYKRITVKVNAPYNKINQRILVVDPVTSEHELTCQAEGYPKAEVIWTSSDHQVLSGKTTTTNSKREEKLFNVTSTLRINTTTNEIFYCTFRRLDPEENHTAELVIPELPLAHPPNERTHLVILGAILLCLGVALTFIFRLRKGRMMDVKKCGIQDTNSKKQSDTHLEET

SMILES | IC50 [1] [nM] | IC50 [2, 3] [nM] | IC50 [2, 4] [nM]
CCCC[C@H]1C(=O)N(C)[C@@H](CCCC)C(=O)N[C@@H](CCCNC(=N)N)C(=O)NC(C(=O)NCC(N)=O)CSCC(=O)N[C@@H](Cc2ccc(O)cc2)C(=O)N(C)[C@@H](C)C(=O)N[C@@H](CC(N)=O)C(=O)N2CCC[C@H]2C(=O)N[C@@H](Cc2c[nH]cn2)C(=O)N[C@@H](C)C(=O)N[C@@H](CC(C)C)C(=O)N2CCC[C@H]2C(=O)N[C@@H](Cc2c[nH]c3ccccc23)C(=O)N[C@@H](CO)C(=O)N[C@@H](Cc2c[nH]c3ccccc23)C(=O)N1C (stereo partly shown) [Example 10517] ({CH2CO}-Y[NMeA]NPHALPWSW[NMeNle][NMeNle]R[ξC]G-NH2; thioether N-15) | > 30.5 | > 74.3 | –
CCCC[C@H]1C(=O)N(C)[C@@H](CCCC)C(=O)N[C@@H](CCCCN)C(=O)N[C@H](C(=O)NCC(N)=O)CSCC(=O)N[C@@H](Cc2ccc(O)cc2)C(=O)N(C)[C@@H](C)C(=O)N[C@@H](CC(N)=O)C(=O)N2CCC[C@H]2C(=O)N[C@@H](Cc2c[nH]cn2)C(=O)N[C@@H](CCC(=O)O)C(=O)N2C[C@H](O)C[C@H]2C(=O)N[C@@H](Cc2c[nH]c3ccccc23)C(=O)N[C@@H](CO)C(=O)N[C@@H](Cc2c[nH]c3ccccc23)C(=O)N1C [Example 5139] ({CH2CO}-Y[NMeA]NPHE[Hyp]WSW[NMeNle][NMeNle]KCG-NH2; thioether N-14) | 0.385 to 6.74 | 0.158 to 4.71 | –
CCCC[C@H]1C(=O)N(C)[C@@H](CCCC)C(=O)N[C@@H](CCCNC(=N)N)C(=O)NC(C(=O)NCC(N)=O)CSCC(=O)N[C@@H](Cc2ccc(O)cc2)C(=O)N(C)[C@@H](C)C(=O)N[C@@H](CC(N)=O)C(=O)N2CCC[C@H]2C(=O)N[C@@H](Cc2cnc[nH]2)C(=O)N[C@@H](CO)C(=O)N2C[C@H](O)C[C@H]2C(=O)N[C@@H](Cc2c[nH]c3ccccc23)C(=O)N[C@@H](CO)C(=O)N[C@@H](Cc2c[nH]c3ccccc23)C(=O)N1C (stereo partly shown) [Example 9069] ({CH2CO}-Y[NMeA]NPHS[Hyp]WSW[NMeNle][NMeNle]R[ξC]G-NH2; thioether N-14) | 0.385 to 6.74 | 0.158 to 4.71 | –
CCCC[C@H]1C(=O)N(C)CC(=O)N[C@@H](CC(=O)O)C(=O)N[C@@H](C(C)C)C(=O)N(C)[C@@H](Cc2ccccc2)C(=O)N[C@@H](Cc2ccc(O)cc2)C(=O)N(C)CC(=O)N[C@@H](Cc2c[nH]c3ccccc23)C(=O)N[C@@H](Cc2ccc(O)cc2)C(=O)N[C@@H](CC(C)C)C(=O)N[C@H](C(=O)NCC(N)=O)C(C)(C)SCC(=O)N[C@@H](Cc2ccccc2)C(=O)N(C)[C@@H](Cc2ccccc2)C(=O)N1C [Example 3087] (HELM PEPTIDE1{[O=C(C[*:3])[*:2]].F.[meF].[CCCC[C@@H](C(=O)[*:2])N(C)[*:1]].[Sar].D.V.[meF].Y.[Sar].W.Y.L.[Pen].G.[am]}$PEPTIDE1,PEPTIDE1,1:R3-14:R3$$$V2.0) | > 30.5 | – | > 74.3
CCCC[C@H]1C(=O)N(C)[C@@H](CCCC)C(=O)N[C@@H](C)C(=O)N[C@H](C(=O)NCC(=O)O)CSCC(=O)N[C@@H](Cc2ccc(O)cc2)C(=O)N(C)[C@@H](C)C(=O)N[C@@H](CC(N)=O)C(=O)N2CCC[C@H]2C(=O)N[C@@H](Cc2cnc[nH]2)C(=O)N[C@@H](CC(C)C)C(=O)N[C@@H](CCCN)C(=O)N[C@@H](Cc2c[nH]c3ccccc23)C(=O)N[C@@H](CO)C(=O)N[C@@H](Cc2c[nH]c3ccccc23)C(=O)N1C [Example 1154] | 6.76 to 30.3 | – | > 74.3
CCCC[C@H]1C(=O)N(C)[C@@H](CCCC)C(=O)N[C@@H](CCCNC(=N)N)C(=O)N[C@H](C(=O)NCC(=O)O)CSCC(=O)N[C@@H](Cc2ccccc2)C(=O)N(C)[C@@H](C)C(=O)N[C@@H](CC(N)=O)C(=O)N2CCC[C@H]2C(=O)N[C@@H](Cc2cnc[nH]2)C(=O)N[C@@H](CC(C)C)C(=O)N(C)CC(=O)N[C@@H](Cc2c[nH]c3ccccc23)C(=O)N[C@@H](CO)C(=O)N[C@@H](Cc2c[nH]c3ccccc23)C(=O)N1C [Example 1076] ({CH2CO}-F[NMeA]NPHL[Sar]WSW[NMeNle][NMeNle]RCG-OH; thioether N-14) | 6.76 to 30.3 | – | 4.78 to 72.9
CCCC[C@H]1C(=O)N2CC[C@@H]2C(=O)N[C@@H](CC(=O)O)C(=O)N[C@@H](C(C)C)C(=O)N(C)[C@@H](Cc2ccccc2)C(=O)N[C@@H](Cc2ccc(O)cc2)C(=O)N(C)CC(=O)N[C@@H](Cc2c[nH]c3ccccc23)C(=O)N[C@@H](Cc2ccc(O)cc2)C(=O)N[C@@H](CC(C)C)C(=O)N[C@H](C(=O)NCC(N)=O)CSCC(=O)N[C@@H](Cc2ccccc2)C(=O)N(C)[C@@H](Cc2ccccc2)C(=O)N1C [Example 3582] ({CH2CO}-F[NMeF][NMeNle][dAze]DV[NMeF]Y[Sar]WYLCG-NH2; thioether N-13) | 6.76 to 30.3 | 4.78 to 72.9 | –
CCCC[C@H]1C(=O)N(C)[C@@H](CCCC)C(=O)N[C@@H](CCCNC(=N)N)C(=O)NC(C(=O)NCC(N)=O)CSCC(=O)N[C@@H](Cc2ccc(O)cc2)C(=O)N(C)[C@@H](C)C(=O)N[C@@H](CC(N)=O)C(=O)N2CCC[C@H]2C(=O)N[C@@H](CO)C(=O)N[C@@H](CC(C)C)C(=O)N2C[C@H](O)C[C@H]2C(=O)N[C@@H](Cc2c[nH]c3ccccc23)C(=O)N[C@@H](CO)C(=O)N[C@@H](Cc2c[nH]c3ccccc23)C(=O)N1C (stereo partly shown) [Example 9074] ({CH2CO}-Y[NMeA]NPSL[Hyp]WSW[NMeNle][NMeNle]R[ξC]G-NH2; thioether N-14) | 0.385 to 6.74 | 0.158 to 4.71 | –
CCCC[C@H]1C(=O)N(C)[C@@H](CCCC)C(=O)N[C@@H](CCCNC(=N)N)C(=O)N[C@H](C(=O)NCC(N)=O)CSCC(=O)N[C@@H](Cc2ccccc2)C(=O)N(C)[C@@H](C)C(=O)N[C@@H](CC(N)=O)C(=O)N2CCC[C@H]2C(=O)N[C@@H](Cc2cnc[nH]2)C(=O)N[C@@H](CC(C)C)C(=O)N(C)CC(=O)N[C@@H](Cc2c[nH]c3ccccc23)C(=O)N[C@H](CO)C(=O)N[C@@H](Cc2c[nH]c3ccccc23)C(=O)N1C [Example 1065] ({CH2CO}-F[NMeA]NPHL[Sar]W[dS]W[NMeNle][NMeNle]RCG-NH2; thioether N-14) | > 30.5 | – | > 74.3
CCCC[C@H]1C(=O)N(C)[C@@H](CCCC)C(=O)N[C@@H](CCCNC(=N)N)C(=O)NC(C(=O)NCC(N)=O)CSCC(=O)N[C@@H](Cc2ccc(O)cc2)C(=O)N(C)[C@@H](C)C(=O)N[C@@H](CC(N)=O)C(=O)N2CCC[C@H]2C(=O)N[C@@H](CC(N)=O)C(=O)N[C@@H](CC(C)C)C(=O)N2CCC[C@H]2C(=O)N[C@@H](Cc2c[nH]c3ccccc23)C(=O)N[C@@H](CO)C(=O)N[C@@H](Cc2csc3ccccc23)C(=O)N1C (stereo partly shown) [Example 9060] ({CH2CO}-Y[NMeA]NPNLPWS[Bta][NMeNle][NMeNle]R[ξC]G-NH2; thioether N-14) | 0.385 to 6.74 | 0.158 to 4.71 | –
CCCC[C@H]1C(=O)N(C)[C@@H](CCCC)C(=O)N[C@@H](CCCNC(=N)N)C(=O)NC(C(=O)N[C@@H](CO)C(N)=O)CSCC(=O)N[C@@H](Cc2ccc(O)cc2)C(=O)N(C)[C@@H](C)C(=O)N[C@@H](CC(N)=O)C(=O)N2CCC[C@H]2C(=O)N[C@@H](CO)C(=O)N[C@@H](CC(C)C)C(=O)N2C[C@H](O)C[C@H]2C(=O)N[C@@H](Cc2c[nH]c3ccccc23)C(=O)N[C@@H](CO)C(=O)N[C@@H](Cc2c[nH]c3ccccc23)C(=O)N1C (stereo partly shown) [Example 9080] ({CH2CO}-Y[NMeA]NPSL[Hyp]WSW[NMeNle][NMeNle]R[ξC]S-NH2; thioether N-14) | 0.385 to 6.74 | 0.158 to 4.71 | –
CCCC[C@H]1C(=O)N(C)[C@@H](CCCC)C(=O)N[C@@H](CC(C)C)C(=O)N[C@H](C(=O)NCC(N)=O)CSCC(=O)N[C@@H](Cc2ccc(O)cc2)C(=O)N(C)[C@@H](C)C(=O)N[C@@H](CC(N)=O)C(=O)N(C)CC(=O)N[C@@H](Cc2c[nH]cn2)C(=O)N[C@@H](CCC(N)=O)C(=O)N2C[C@H](O)C[C@H]2C(=O)N[C@@H](Cc2c[nH]c3ccccc23)C(=O)N[C@@H](CO)C(=O)N[C@@H](Cc2c[nH]c3ccccc23)C(=O)N1C [Example 5084] ({CH2CO}-Y[NMeA]N[Sar]HQ[Hyp]WSW[NMeNle][NMeNle]LCG-NH2; thioether N-14) | 6.76 to 30.3 | 4.78 to 72.9 | –
CCCC[C@H]1C(=O)N(C)CC(=O)N[C@@H](CC(=O)O)C(=O)N[C@@H](C(C)C)C(=O)N(C)[C@@H](Cc2ccccc2)C(=O)N[C@@H](Cc2ccc(O)cc2)C(=O)N(C)CC(=O)N[C@@H](Cc2c[nH]c3ccccc23)C(=O)N[C@@H](Cc2ccc(O)cc2)C(=O)N[C@@H](CC(C)C)C(=O)N[C@H](C(=O)NCC(N)=O)CSCC(=O)N[C@@H](Cc2ccccc2)C(=O)N(C)[C@@H](Cc2ccc(O)cc2)C(=O)N1C [Example 3059] (HELM PEPTIDE1{[O=C(C[*:3])[*:2]].F.[meY].[CCCC[C@@H](C(=O)[*:2])N(C)[*:1]].[Sar].D.V.[meF].Y.[Sar].W.Y.L.C.G.[am]}$PEPTIDE1,PEPTIDE1,1:R3-14:R3$$$V2.0) | 6.76 to 30.3 | – | 4.78 to 72.9
CCCC[C@H]1C(=O)N(C)CC(=O)N[C@@H](CC(=O)O)C(=O)N[C@@H](C(C)C)C(=O)N(C)[C@@H](Cc2ccccc2)C(=O)N[C@@H](Cc2ccc(CN)cc2)C(=O)N(C)CC(=O)N[C@@H](Cc2c[nH]c3ccccc23)C(=O)N[C@@H](Cc2ccc(O)cc2)C(=O)N[C@@H](CC(C)C)C(=O)N[C@H](C(=O)NCC(N)=O)CSCC(=O)N[C@@H](Cc2ccc(F)cc2)C(=O)N(C)[C@@H](Cc2ccccc2)C(=O)N1C [Example 3123] ({CH2CO}-[Phe(4-F)][NMeF][NMeNle][Sar]DV[NMeF][Phe(4-CH2NH2)][Sar]WYLCG-NH2; thioether N-13) | 6.76 to 30.3 | – | 0.158 to 4.71
